{
  "source": "PubChem BioAssay AID1259411",
  "about": "(Chemical Carcinogenesis Research Information System (CCRIS), 2018)",
  "system": "rodent carcinogenicity bioassays, tumor incidence",
  "assay": "CCRIS carcinogenicity studies",
  "in_short": "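Archive of carcinogenicity, mutagenicity, tumor promotion and tumor inhibition results drawn from journals, NCI reports and other sources, expert-reviewed; covers 1985-2011 and is no longer updated.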",
  "note": "Active and inactive are the calls of the source. No rule for the calls is given here.",
  "data": [
    {"smiles": "Oc1ccccc1O", "values": [
      {"measurement": "carcinogen call", "setting": "Species: MOUSE, Strain/Sex: B6C3F1/FEMALE, Route: ORAL, Dose: 0, 0.8% IN DIET FOR 96 WK (STUDY DURATION: 96 WK), Tumor Site: Type of Lesion: GLANDULAR STOMACH: ADENOMA", "value": "active; positive"},
      {"measurement": "carcinogen call", "setting": "Species: MOUSE, Strain/Sex: B6C3F1/FEMALE, Route: ORAL, Dose: 0, 0.8% IN POWDERED BASAL DIET FOR 96 WK (STUDY DURATION: 96 WK)", "value": "inactive; negative"},
      {"measurement": "carcinogen call", "setting": "Species: MOUSE, Strain/Sex: B6C3F1/MALE, Route: ORAL, Dose: 0, 0.8% IN DIET FOR 96 WK (STUDY DURATION: 96 WK), Tumor Site: Type of Lesion: GLANDULAR STOMACH: ADENOMA", "value": "active; positive"},
      {"measurement": "carcinogen call", "setting": "Species: MOUSE, Strain/Sex: B6C3F1/MALE, Route: ORAL, Dose: 0, 0.8% IN POWDERED BASAL DIET FOR 96 WK (STUDY DURATION: 96 WK)", "value": "inactive; negative"},
      {"measurement": "carcinogen call", "setting": "Species: RAT, Strain/Sex: F344/FEMALE, Route: ORAL, Dose: 0, 0.8% IN DIET FOR 104 WK (STUDY DURATION: 104 WK), Tumor Site: Type of Lesion: GLANDULAR STOMACH: ADENOMA, ADENOCARCINOMA", "value": "active; positive"},
      {"measurement": "carcinogen call", "setting": "Species: RAT, Strain/Sex: F344/FEMALE, Route: ORAL, Dose: 0, 0.8% IN POWDERED BASAL DIET FOR 104 WK (STUDY DURATION: 104 WK), Tumor Site: Type of Lesion: GLANDULAR STOMACH: ADENOCARCINOMA", "value": "active; positive"},
      {"measurement": "carcinogen call", "setting": "Species: RAT, Strain/Sex: F344/FEMALE, Route: ORAL, Dose: 0, 2% IN DIET FOR 104 WK (STUDY DURATION: 104 WK), Tumor Site: Type of Lesion: GLANDULAR STOMACH: ADENOCARCINOMA", "value": "active; positive"},
      {"measurement": "carcinogen call", "setting": "Species: RAT, Strain/Sex: F344/MALE, Route: ORAL, Dose: 0, 0.1, 0.2, 0.4, 0.8% IN DIET FOR 104 WK (STUDY DURATION: 104 WK), Dose: 0, 0.1, 0.2, 0.4, 0.8% IN DIET FOR 104 WK (STUDY DURATION: 104 WK), Tumor Site: Type of Lesion: GLANDULAR STOMACH: ADENOMA, PANCREAS: ACINAR CELL ADENOMA", "value": "active; positive"},
      {"measurement": "carcinogen call", "setting": "Species: RAT, Strain/Sex: F344/MALE, Route: ORAL, Dose: 0, 0.16% IN DIET FOR DURATION OF STUDY (STUDY DURATION: 104 WK), Tumor Site: Type of Lesion: GLANDULAR STOMACH: ADENOMA", "value": "active; positive"},
      {"measurement": "carcinogen call", "setting": "Species: RAT, Strain/Sex: F344/MALE, Route: ORAL, Dose: 0, 0.8% IN DIET FOR 12, 24, 48, 72, OR 96 WK FOLLOWED BY BASAL DIET FOR 84, 72, 48, 24, AND 0 WK RESPECTIVELY (STUDY DUR, Tumor Site: Type of Lesion: STOMACH: ADENOMA, ADENOCARCINOMA", "value": "active; positive"},
      {"measurement": "carcinogen call", "setting": "Species: RAT, Strain/Sex: F344/MALE, Route: ORAL, Dose: 0, 0.8% IN DIET FOR 104 WK (STUDY DURATION: 104 WK), Tumor Site: Type of Lesion: GLANDULAR STOMACH: ADENOMA, ADENOCARCINOMA", "value": "active; positive"},
      {"measurement": "carcinogen call", "setting": "Species: RAT, Strain/Sex: F344/MALE, Route: ORAL, Dose: 0, 0.8% IN POWDERED BASAL DIET FOR 104 WK (STUDY DURATION: 104 WK), Tumor Site: Type of Lesion: GLANDULAR STOMACH: ADENOCARCINOMA", "value": "active; positive"},
      {"measurement": "carcinogen call", "setting": "Species: RAT, Strain/Sex: F344/MALE, Route: ORAL, Dose: 0, 2% IN DIET FOR 104 WK (STUDY DURATION: 104 WK), Tumor Site: Type of Lesion: GLANDULAR STOMACH: ADENOCARCINOMA", "value": "active; positive"},
      {"measurement": "carcinogen call", "setting": "Species: RAT, Strain/Sex: LEWIS/MALE, Route: ORAL, Dose: 0, 0.8% IN DIET FOR 104 WK (STUDY DURATION: 104 WK), Tumor Site: Type of Lesion: GLANDULAR STOMACH: ADENOMA, ADENOCARCINOMA", "value": "active; positive"},
      {"measurement": "carcinogen call", "setting": "Species: RAT, Strain/Sex: SPRAGUE-DAWLEY/MALE, Route: ORAL, Dose: 0, 0.8% IN DIET FOR 104 WK (STUDY DURATION: 104 WK), Tumor Site: Type of Lesion: GLANDULAR STOMACH: ADENOMA, ADENOCARCINOMA, FORESTOMACH: PAPILLOMA", "value": "active; positive"},
      {"measurement": "carcinogen call", "setting": "Species: RAT, Strain/Sex: WISTAR/MALE, Route: ORAL, Dose: 0, 0.8% IN DIET FOR 104 WK (STUDY DURATION: 104 WK), Tumor Site: Type of Lesion: GLANDULAR STOMACH: ADENOMA, ADENOCARCINOMA", "value": "active; positive"},
      {"measurement": "carcinogen call", "setting": "Species: RAT, Strain/Sex: WKY/MALE, Route: ORAL, Dose: 0, 0.8% IN DIET FOR 104 WK (STUDY DURATION: 104 WK), Tumor Site: Type of Lesion: GLANDULAR STOMACH: ADENOMA", "value": "active; positive"}
    ]},
    {"smiles": "O=[N+]([O-])c1ccc2ccc3c([N+](=O)[O-])ccc4ccc1c2c43", "values": [
      {"measurement": "carcinogen call", "setting": "Species: HAMSTER, Strain/Sex: SYRIAN/FEMALE, Route: INTRATRACHEAL, Dose: 0, 0.5 MG IN 0.2 ML OF SALINE 1/WK FOR 26 WK (STUDY DURATION: 48 WK), Tumor Site: Type of Lesion: LUNG: ADENOCARCINOMA, HEMATOPOIETIC SYSTEM: LEUKEMIA", "value": "active; positive"},
      {"measurement": "carcinogen call", "setting": "Species: HAMSTER, Strain/Sex: SYRIAN/MALE, Route: INTRAPERITONEAL, Dose: 0, 0.5 MG IN 0.2 ML OF SALINE 1/WK FOR 26 WK (STUDY DURATION: 48 WK), Tumor Site: Type of Lesion: LUNG: ADENOCARCINOMA, HEMATOPOIETIC SYSTEM: LEUKEMIA", "value": "active; positive"},
      {"measurement": "carcinogen call", "setting": "Species: MOUSE, Strain/Sex: BALB/MALE, Route: SUBCUTANEOUS, Dose: 0, 0.1 MG IN DMSO 1/WK FOR 20 WK (STUDY DURATION: 60 WK), Tumor Site: Type of Lesion: INJECTION SITE: TUMOR", "value": "active; positive"},
      {"measurement": "carcinogen call", "setting": "Species: RAT, Strain/Sex: F344/MALE, Route: SUBCUTANEOUS, Dose: 0, 0.2 MG 2/WK FOR 10 WK (STUDY DURATION: 320 D), Tumor Site: Type of Lesion: INJECTION SITE: SARCOMA", "value": "active; positive"},
      {"measurement": "carcinogen call", "setting": "Species: RAT, Strain/Sex: F344/NS1C/MALE, Route: PULMONARY IMPLANT, Dose: 0, 0.003, 0.01, 0.03, 0.1, 0.15 MG AS A SUSPENSION IN EQUAL VOL OF BEESWAX AND TRICAPRYLIN IMPLANTED IN LEFT LUNG (STUDY, Dose: 0, 0.003, 0.01, 0.03, 0.1, 0.15 MG AS A SUSPENSION IN EQUAL VOL OF BEESWAX AND TRICAPRYLIN IMPLANTED IN LEFT LUNG (STUDY, Tumor Site: Type of Lesion: LUNG: TUMOR", "value": "active; positive"},
      {"measurement": "carcinogen call", "setting": "Species: RAT, Strain/Sex: STRAIN CD/FEMALE, Route: INTRAGASTRIC, Dose: 0, 10 UMOL IN DMSO 3/WK FOR 4 WK (TOTAL DOSE: 16 UMOL/RAT) (STUDY DURATION: 78 WK), Tumor Site: Type of Lesion: PITUITARY GLAND: CARCINOMA", "value": "active; positive"},
      {"measurement": "carcinogen call", "setting": "Species: RAT, Strain/Sex: STRAIN CD/FEMALE, Route: INTRAPERITONEAL, Dose: 0, 10 UMOL IN DMSO 3/WK FOR 4 WK (TOTAL DOSE; 16 UMOL/RAT) (STUDY DURATION; 78 WK), Dose: 0, 10 UMOL IN DMSO 3/WK FOR 4 WK (TOTAL DOSE; 16 UMOL/RAT) (STUDY DURATION; 78 WK), Tumor Site: Type of Lesion: HEMATOPOIETIC SYSTEM: HISTIOCYTOMA", "value": "active; positive"},
      {"measurement": "carcinogen call", "setting": "Species: RAT, Strain/Sex: STRAIN-CD/FEMALE, Route: SUBCUTANEOUS, Dose: 0, 6.3 UMOL (TOTAL DOSE) ADMINISTERED OVER 8 WK BEGINNING ON DAY OF BIRTH (STUDY DURATION: 67 WK), Tumor Site: Type of Lesion: INTEGUMENTARY SYSTEM: MALIGNANT FIBROUS HISTIOCYTOMA, HEMATOPOIETIC SYSTEM: LEUKEMIA", "value": "active; positive"}
    ]},
    {"smiles": "Cc1ccc2cc3c(ccc4ccccc43)c3c2c1CC3O", "note": "(stereo not given)", "values": [
      {"measurement": "carcinogen call", "setting": "Species: RAT, Strain/Sex: SPRAGUE-DAWLEY/FEMALE, Route: SUBCUTANEOUS, Dose: 0, 0.2 UMOL IN 0.1 ML SESAME OIL:DMSO (9:1) 3/WK FOR 20 DOSES (STUDY DURATION: 52 WK), Tumor Site: Type of Lesion: INJECTION SITE: SARCOMA", "value": "active; positive"}
    ]},
    {"smiles": "c1ccc2c3c(ccc2c1)-c1cccc2cccc-3c12", "values": [
      {"measurement": "carcinogen call", "setting": "Species: MOUSE, Route: DERMAL, Tumor Site: Type of Lesion: INTEGUMENTARY SYSTEM (SKIN)", "value": "active; positive"},
      {"measurement": "carcinogen call", "setting": "Species: MOUSE, Strain/Sex: CD-1/FEMALE, Route: INTRAPERITONEAL, Dose: 0, 0.11, 0.275, 1.1 UMOL (TOTAL DOSE) ADMINISTERED OVER DAYS 1, 8, AND 15 OF LIFE (STUDY DURATION: 52 WEEKS), Dose: 0, 0.11, 0.275, 1.1 UMOL (TOTAL DOSE) ADMINISTERED OVER DAYS 1, 8, AND 15 OF LIFE (STUDY DURATION: 52 WEEKS), Tumor Site: Type of Lesion: LUNG: ALVEOLAR/BRONCHIOLAR CARCINOMA", "value": "active; positive"},
      {"measurement": "carcinogen call", "setting": "Species: MOUSE, Strain/Sex: CD-1/MALE, Route: INTRAPERITONEAL, Dose: 0, 0.11, 0.275, 1.1 UMOL (TOTAL DOSE) ADMINISTERED OVER DAYS 1, 8, AND 15 OF LIFE (STUDY DURATION: 52 WEEKS), Dose: 0, 0.11, 0.275, 1.1 UMOL (TOTAL DOSE) ADMINISTERED OVER DAYS 1, 8, AND 15 OF LIFE (STUDY DURATION: 52 WEEKS), Tumor Site: Type of Lesion: LUNG: ALVEOLAR/BRONCHIOLAR CARCINOMA, LIVER: ADENOMA OR CARCINOMA", "value": "active; positive"},
      {"measurement": "carcinogen call", "setting": "Species: RAT, Strain/Sex: OSBORNE-MENDEL/FEMALE, Route: LUNG IMPLANT, Dose: 0, 0.2, 1.0, 5.0 MG IN BEESWAX/TRIOCTANOIN (STUDY DURATION: LIFETIME), Dose: 0, 0.2, 1.0, 5.0 MG IN BEESWAX/TRIOCTANOIN (STUDY DURATION: LIFETIME), Tumor Site: Type of Lesion: LUNG: EPIDERMOID CARCINOMA", "value": "active; positive"}
    ]}
  ]
}
